Assay [1] has as its system A. baumanii 13301 (ESBL strain). Put plainly: Agar dilution MIC (CLSI). The note with it: for MIC: Acinetobacter baumannii. It counts as cell-based.
Experimental: (§1) In a typical study, overnight grown bacterial cultures were diluted appropriately and inoculated on the agar media containing doubling dilutions of the antibiotic. Observation for growth or no growth was performed after 16-20 hours of incubation at 35±2° C. in ambient air.
Assay [2] concerns A. baumanii 13304 (ESBL strain). The assay can be described thus: Agar dilution MIC (CLSI). It counts as cell-based. The note with it: for MIC: Acinetobacter baumannii.
Experimental: as §1
Assay [3] concerns A. baumanii 13305 (ESBL strain). Put plainly: Agar dilution MIC (CLSI). It counts as cell-based. The note with it: for MIC: Acinetobacter baumannii. Background: In agar dilution the substance is mixed into plates at graded concentrations.
Experimental: as §1
Assay [4] has as its system A. baumanii S-3 (ESBL strain). Put plainly: Agar dilution MIC (CLSI). The class given is cell-based. The note with it: for MIC: Acinetobacter baumannii.
Experimental: as §1
Assay [5] relates to A. baumanii S-4 (ESBL strain). Put plainly: Agar dilution MIC (CLSI). The class given is cell-based. The note with it: for MIC: Acinetobacter baumannii.
Experimental: as §1
Assay [6] relates to A. baumanii S-8 (ESBL strain). Put plainly: Agar dilution MIC (CLSI). The note with it: for MIC: Acinetobacter baumannii. The class given is cell-based.
Experimental: as §1
The test system of assay [7] is A. baumanii S-10 (ESBL strain). The assay can be described thus: Agar dilution MIC (CLSI). The note with it: for MIC: Acinetobacter baumannii. The class given is cell-based.
Experimental: as §1
For assay [8], the system named is A. baumanii S-15 (ESBL strain). Put plainly: Agar dilution MIC (CLSI). It counts as cell-based. The note with it: for MIC: Acinetobacter baumannii.
Experimental: as §1
Another assay relates to ESBL strains. The assay can be described thus: Agar dilution MIC (CLSI), text summary over the strains. The class given is cell-based, A. baumanii.
The mark [9] stands for this setting: alone, A. baumanii 13301, read-out: MIC.
[10] abbreviates: alone, A. baumanii 13304, read-out: MIC.
Setting [11] is: alone, A. baumanii 13305, read-out: MIC.
Setting [12] is: alone, A. baumanii S-3, read-out: MIC.
The mark [13] stands for this setting: alone, A. baumanii S-8, read-out: MIC.
Where [14] appears, read: alone, A. baumanii S-10, read-out: MIC.

In brackets after ≈: the same amount, converted by molar mass. Counter-ions that a name gives are not always drawn. Like-named read-outs stand apart in the source and are kept apart here.

Experimental for ESBL strains: as §1

On to `CO/N=C(\C(=O)N[C@@H]1C(=O)N2C(C(=O)[O-])=C(C[N+]3(C)CCCC3)CS[C@H]12)c1csc(N)n1` [Cefepime, cefepime], for which the “MIC of beta-lactam with NXL-104 (4 mcg/ml) + Sulbactam (4 mcg/ml)” value in assay [1] (A. baumanii 13301), in [2] (A. baumanii 13304) and in assay [3] (A. baumanii 13305) was less than 0.06 µg/mL in each case. In addition, the “MIC of beta-lactam with NXL-104 (4 mcg/ml) + Sulbactam (8 mcg/ml)” value (“MIC … (4 mcg/ml) + Sulbactam (8 mcg/ml)” below) in assay [1] (A. baumanii 13301) is less than 0.06 µg/mL; in assay [2] (A. baumanii 13304), less than 0.06 µg/mL; in [3] (A. baumanii 13305) it was less than 0.06 µg/mL; in assay [4] (A. baumanii S-3) it was 4 µg/mL; in assay [5] (A. baumanii S-4, NXL-104 4 mcg/ml + Sulbactam 8 mcg/ml), 4 µg/mL; in assay [6] (A. baumanii S-8), 8 µg/mL. The “MIC … (4 mcg/ml) + Sulbactam (8 mcg/ml)” value amounted to 8 µg/mL in assay [7] (A. baumanii S-10) and 8 µg/mL in assay [8] (A. baumanii S-15, NXL-104 4 mcg/ml + Sulbactam 8 mcg/ml). In addition, the “MIC of beta-lactam with NXL-104 (6 mcg/ml) + Sulbactam (6 mcg/ml)” value (shortened to “MIC of beta-lactam … (6 mcg/ml)”) was less than 0.06 µg/mL in assay [1] (A. baumanii 13301); less than 0.06 µg/mL in [2] (A. baumanii 13304); less than 0.06 µg/mL in assay [3] (A. baumanii 13305); 1 µg/mL in assay [4] (A. baumanii S-3); 1 µg/mL in [5] (A. baumanii S-4, NXL-104 6 mcg/ml + Sulbactam 6 mcg/ml); 0.5 µg/mL in assay [6] (A. baumanii S-8). The “MIC of beta-lactam … (6 mcg/ml)” value in assay [7] (A. baumanii S-10) is less than 0.03 µg/mL; in assay [8] (A. baumanii S-15, NXL-104 6 mcg/ml + Sulbactam 6 mcg/ml), 0.12 µg/mL. For the same compound, the “MIC of beta-lactam with NXL-104 (8 mcg/ml) + Sulbactam (4 mcg/ml)” value (“MIC … (8 mcg/ml) + Sulbactam (4 mcg/ml)” for short) in assay [1] (A. baumanii 13301) was less than 0.06 µg/mL; in [2] (A. baumanii 13304), less than 0.06 µg/mL; in assay [3] (A. baumanii 13305), less than 0.06 µg/mL; in assay [4] (A. baumanii S-3), 0.5 µg/mL; in assay [5] (A. baumanii S-4, NXL-104 8 mcg/ml + Sulbactam 4 mcg/ml), 0.5 µg/mL; in assay [6] (A. baumanii S-8), 0.5 µg/mL. The “MIC … (8 mcg/ml) + Sulbactam (4 mcg/ml)” value in assay [7] (A. baumanii S-10) was less than 0.03 µg/mL; in assay [8] (A. baumanii S-15, NXL-104 8 mcg/ml + Sulbactam 4 mcg/ml), 0.5 µg/mL. For the same compound, in assay [3] (A. baumanii 13305), the “MIC of beta-lactam in presence of Sulbactam (4 to 8 mcg/ml)” value was found to be 4 µg/mL.
Consider `CO/N=C(\C(=O)N[C@@H]1C(=O)N2C(C(=O)[O-])=C(C[n+]3cccc4c3CCC4)CS[C@H]12)c1csc(N)n1` [Cefpirome, cefpirome], for which the “MIC of beta-lactam with NXL-104 (4 mcg/ml) + Sulbactam (4 mcg/ml)” value is less than 0.06 µg/mL in assay [1] (A. baumanii 13301); less than 0.06 µg/mL in assay [2] (A. baumanii 13304); less than 0.06 µg/mL in [3] (A. baumanii 13305); 16 µg/mL in [4] (A. baumanii S-3, NXL-104 4 mcg/ml + Sulbactam 4 mcg/ml); 16 µg/mL in assay [6] (A. baumanii S-8, NXL-104 4 mcg/ml + Sulbactam 4 mcg/ml); 16 µg/mL in assay [7] (A. baumanii S-10, NXL-104 4 mcg/ml + Sulbactam 4 mcg/ml). Further, the “MIC … (4 mcg/ml) + Sulbactam (8 mcg/ml)” value was less than 0.06 µg/mL in assay [1] (A. baumanii 13301); less than 0.06 µg/mL in assay [2] (A. baumanii 13304); less than 0.06 µg/mL in assay [3] (A. baumanii 13305); 4 µg/mL in assay [4] (A. baumanii S-3); 8 µg/mL in assay [6] (A. baumanii S-8); 8 µg/mL in assay [7] (A. baumanii S-10). The “MIC of beta-lactam … (6 mcg/ml)” value in assay [1] (A. baumanii 13301) was less than 0.06 µg/mL; in assay [2] (A. baumanii 13304), less than 0.06 µg/mL; in assay [3] (A. baumanii 13305), less than 0.06 µg/mL; in [4] (A. baumanii S-3) it was 1 µg/mL; in assay [6] (A. baumanii S-8), 0.5 µg/mL; in [7] (A. baumanii S-10), less than 0.03 µg/mL. Further, the “MIC … (8 mcg/ml) + Sulbactam (4 mcg/ml)” value was less than 0.06 µg/mL in [1] (A. baumanii 13301); less than 0.06 µg/mL in assay [2] (A. baumanii 13304); less than 0.06 µg/mL in [3] (A. baumanii 13305); 0.5 µg/mL in assay [4] (A. baumanii S-3); 0.5 µg/mL in assay [6] (A. baumanii S-8); less than 0.03 µg/mL in assay [7] (A. baumanii S-10). Besides, the “MIC of beta-lactam in presence of Sulbactam (4 to 8 mcg/ml)” value in assay [1] (A. baumanii 13301, Sulbactam 4 to 8 mcg/ml) is more than 32 µg/mL; in assay [2] (A. baumanii 13304, Sulbactam 4 to 8 mcg/ml), 32 µg/mL; in assay [3] (A. baumanii 13305), 8 µg/mL; in assay [4] (A. baumanii S-3, Sulbactam 4 to 8 mcg/ml), more than 32 µg/mL; in [6] (A. baumanii S-8, Sulbactam 4 to 8 mcg/ml) it was 32 µg/mL; in assay [7] (A. baumanii S-10, Sulbactam 4 to 8 mcg/ml) it was more than 32 µg/mL. Moreover, the MIC in assay [1] (A. baumanii 13301, NXL-104 4 to 8 mcg/ml, read-out: MIC of beta-lactam in presence of NXL-104 (4 to 8 mcg/ml)) is more than 32 µg/mL; in assay [1] (setting [9]), more than 32 µg/mL; in assay [2] (A. baumanii 13304, NXL-104 4 to 8 mcg/ml, read-out: MIC of beta-lactam in presence of NXL-104 (4 to 8 mcg/ml)), 16 µg/mL; in [2] (setting [10]), 32 µg/mL (≈ 62.2 µM); in assay [3] (A. baumanii 13305, NXL-104 4 to 8 mcg/ml, read-out: MIC of beta-lactam in presence of NXL-104 (4 to 8 mcg/ml)) it was 16 µg/mL; in assay [3] (setting [11]), 16 µg/mL (≈ 31.1 µM). Besides, the MIC in assay [4] (A. baumanii S-3, NXL-104 4 to 8 mcg/ml, read-out: MIC of beta-lactam in presence of NXL-104 (4 to 8 mcg/ml)) was 32 µg/mL; in assay [4] (setting [12]), more than 32 µg/mL; in [6] (A. baumanii S-8, NXL-104 4 to 8 mcg/ml, read-out: MIC of beta-lactam in presence of NXL-104 (4 to 8 mcg/ml)) it was 16 µg/mL; in [6] (setting [13]) it was 32 µg/mL (≈ 62.2 µM); in assay [7] (A. baumanii S-10, NXL-104 4 to 8 mcg/ml, read-out: MIC of beta-lactam in presence of NXL-104 (4 to 8 mcg/ml)) it was 16 µg/mL; in assay [7] (setting [14]), more than 32 µg/mL. Besides, the “MIC in presence of sulbactam and NXL-104, lowest value ("as low as")” value with ESBL strains is reported as “less than 0.03 mcg/ml”.
Consider `NC(=O)[C@@H]1CC[C@@H]2CN1C(=O)N2OS(=O)(=O)O` [NXL-104, sodium salt of trans-7-oxo-6-(sulphooxy)-1,6-diazabicyclo-[3.2.1]-octane-2-carboxamide], for which the “MIC of NXL-104 in presence of Sulbactam (4 mcg/ml)” value in assay [1] (A. baumanii 13301, Sulbactam 4 mcg/ml) stood at 2 µg/mL; in assay [2] (A. baumanii 13304, Sulbactam 4 mcg/ml), 2 µg/mL; in assay [3] (A. baumanii 13305, Sulbactam 4 mcg/ml), 2 µg/mL; in [4] (A. baumanii S-3, Sulbactam 4 mcg/ml) it was 16 µg/mL; in assay [5] (A. baumanii S-4, Sulbactam 4 mcg/ml) it was 16 µg/mL; in assay [6] (A. baumanii S-8, Sulbactam 4 mcg/ml), 16 µg/mL. The “MIC of NXL-104 in presence of Sulbactam (4 mcg/ml)” value came to 16 µg/mL in assay [7] (A. baumanii S-10, Sulbactam 4 mcg/ml) and 16 µg/mL in assay [8] (A. baumanii S-15, Sulbactam 4 mcg/ml). Moreover, the MIC is more than 64 µg/mL in assay [1] (setting [9]); more than 64 µg/mL in assay [2] (setting [10]); more than 64 µg/mL in [3] (setting [11]); more than 64 µg/mL in assay [4] (setting [12]); more than 64 µg/mL in assay [5] (alone, A. baumanii S-4, read-out: MIC); more than 64 µg/mL in assay [6] (setting [13]). Moreover, the MIC was more than 64 µg/mL in [7] (setting [14]) and more than 64 µg/mL in assay [8] (alone, A. baumanii S-15, read-out: MIC).
Consider `CC1(C)[C@H](C(=O)O)N2C(=O)C[C@H]2S1(=O)=O` [Sulbactam, sulbactam], for which the MIC in assay [1] was more than 32 µg/mL; in assay [2], more than 32 µg/mL; in [3], 16 µg/mL (≈ 68.6 µM); in [4] it was more than 32 µg/mL; in [5], more than 32 µg/mL; in assay [6] it was more than 32 µg/mL. Also, the MIC in assay [7] and in assay [8] was more than 32 µg/mL in each case.

The values above are taken from patent US9095594B2, “Pharmaceutical compositions comprising beta-lactam antibiotic, sulbactam and beta-lactamase inhibitor” (Wockhardt Ltd., priority 2011, dated 2015).
